A short description of data set [1]: observation of diarrhea and loose feces in the rats. The class given is in vivo, rat (Crj: Wister). The note with it: rat, oral. As to the method: (§1) Crj: Wister rats (7 weeks old, weight: 220-250 g) were kept without food for 16 hours, and hydrochloric acid-D-galactosamine 800 mg/kg was administrated by intra peritonealy injection in order to elicit acute hepatopathy model. After 24 hours from the administration of galactosamine, blood sample was collected under ether anesthesia and a serum was separated. The serum was assayed for serum biochemical profile of liver function test by an automatic analyzer (AU 550 available Orympus Kogaku Kogyo K.K.).
(§2) Test compound was dissolved in 0.5% ethanol physiological saline, which was orally administered by force using an oral sonde for rat at 30 minutes before, 2 hours and 6 hours after the administration of the galactosamine.
The generation of a diarrhea and a loose feces observed up to 2 hours after the 3rd administration of the test compounds, and the number of the rats having diarrhea or loose feces were recorded.
(§3) This test was carried out according the same manner as in the Example 1 providing the following compounds were used as test compounds.
(§4) This test was carried out according the same manner as in the Example 1 using the following compounds as test compounds.
(§5) This test was carried out according the same manner as in the Example 1 excepting the following compounds were used as test compounds.

Data set [2] has as its system acute hepatopathy model (galactosamine-elicited). In words: D-galactosamine acute hepatopathy model in rats, serum biochemical liver function test (inhibiting ratio). The class given is in vivo, rat (Crj: Wister). The note with it: rat, oral; for inhibition in vivo at 0.03 mg/kg / inhibition in vivo at 0.1 mg/kg / inhibition in vivo at 1 mg/kg / inhibition in vivo at 0.01 mg/kg: 24 h; for inhibition in vivo at 0.01 mg/kg: 10 μg/kg × 3. As to the method: as §1, §2
The following four items were tested for the serum biochemical liver function test: glutamic oxaloacetic transaminase (GOT), glutamic pyruvic transaminase (GPT) lactate dehydrogenase (LDH)
The inhibiting Ratio (%) was obtained by the results of the serum biochemical profile of liver functional test how much the increases in the above four items by the administration of galactosamine was inhibited by the test compounds. The Inhibiting, Ratio (%) was calculated by the following equation: [formula] (All of the data in the equation are represented by average) […]
as §3, §4, §5

In a further data set the test system is hepatocyte. The note with it: cited from earlier work.
The mark [3] stands for this setting: 30 μg/kg × 3, up to 2 hours after 3rd administration.
Setting [4] is: 30 μg/kg × 3, read-out: inhibiting ratio GOT.
The mark [5] stands for this setting: 30 μg/kg × 3, read-out: inhibiting ratio GPT.
Setting [6] is: 30 μg/kg × 3, read-out: inhibiting ratio T-Bil.
Where [7] appears, read: 100 μg/kg × 3, up to 2 hours after 3rd administration.
Setting [8] is: 100 μg/kg × 3, read-out: inhibiting ratio GOT.
Where [9] appears, read: 100 μg/kg × 3, read-out: inhibiting ratio GPT.
Where [10] appears, read: 100 μg/kg × 3, read-out: inhibiting ratio T-Bil.
Where [11] appears, read: 1000 μg/kg × 3, up to 2 hours after 3rd administration.
Where [12] appears, read: 1000 μg/kg × 3, read-out: inhibiting ratio GOT.
[13] abbreviates: 1000 μg/kg × 3, read-out: inhibiting ratio GPT.
Setting [14] is: 1000 μg/kg × 3, read-out: inhibiting ratio T-Bil.
[15] abbreviates: 10 μg/kg × 3, up to 2 hours after 3rd administration.
The mark [16] stands for this setting: read-out: inhibiting ratio T-Bil.

Like-named read-outs stand apart in the source and are kept apart here.

Take `CCCCC(F)(F)C(=O)CC[C@H]1[C@H](O)CC(=O)[C@@H]1C/C=C\CCCC(=O)O` [Test Compound 1, 13,14-dihydro-15-keto-16,16-difluoro-PGE2, reference compound]: the “diarrhea / loose feces (number of rats having diarrhea or loose feces)” value (“diarrhea / loose feces” for short) in data set [1] (setting [3]) was 3/10. In addition, the inhibition in vivo at 0.03 mg/kg is 28% in data set [2] (setting [4]), 42% in data set [2] (setting [5]) and 82% in data set [2] (setting [6]). Moreover, in data set [2] (30 μg/kg × 3), the “inhibiting ratio LDH” value is 22%.
For the molecule `CCCCC(F)(F)C(=O)CC[C@H]1[C@H](O)CC(=O)[C@@H]1CCCCCCC(=O)O` [Test Compound 3, 13,14-dihydro-15-keto-16,16-difluoro-PGE1, reference compound], in data set [1] (setting [7]), the “diarrhea / loose feces” value is reported as 1/6. Besides, the “loose feces (number of rats)” value in data set [1] (setting [7]) is 2/6. Further, the inhibition in vivo at 0.1 mg/kg was 63% in data set [2] (setting [8]), 76% in data set [2] (setting [9]) and 80% in data set [2] (setting [10]). Also, the “inhibiting ratio LDH” value in data set [2] (100 μg/kg × 3) was 61%.
`CCCCC(C)(C)[C@H](O)/C=C/[C@H]1[C@H](O)CC(=O)[C@@H]1C/C=C\CCCC(=O)O` [16,16-dimethyl-PGE2]: the hepatocyte protecting activity entry with hepatocyte is listed as “have a hepatocyte protecting activity”.
In the case of `CCC[C@@H](C)C(F)(F)C(=O)CC[C@H]1[C@H](O)CC(=O)[C@@H]1CCCCCCC(=O)O` [Test Compound 4, 7-[(1R,2R,3R)-2-{4,4-difluoro-5(R)-methyl-3-oxooctyl}-3-hydroxy-5-oxocyclopentyl]heptanoic acid], in data set [1] (setting [7]), the “diarrhea / loose feces” value is “no diarrhea in any cases”. Further, the inhibition in vivo at 0.1 mg/kg was 54% in data set [2] (setting [8]), 57% in data set [2] (setting [9]) and 89% in data set [2] (setting [10]). The “inhibiting ratio LDH” value in data set [2] (100 μg/kg × 3) stood at 51%.
Consider `CC[C@H](C)CC(F)(F)C(=O)CC[C@H]1[C@H](O)CC(=O)[C@@H]1CCCCCCC(=O)O` [Test Compound 9, 7-[(1R,2R,3R)-2-{4,4-difluoro-6(S)-methyl-3-oxooctyl}-3-hydroxy-5-oxocyclopentyl]heptanoic acid], for which the “diarrhea / loose feces” value in data set [1] (setting [7]) and in data set [1] (setting [11]) was “non” in each case. Moreover, the inhibition in vivo at 0.1 mg/kg in data set [2] (setting [8]) stood at 44%; in data set [2] (setting [9]), 54%; in data set [2] (setting [10]), 80%. Further, the inhibition in vivo at 1 mg/kg in data set [2] (setting [12]) turned out to be 84%; in data set [2] (setting [13]), 88%; in data set [2] (setting [14]) it was 95%.
`CC(C)CCC(F)(F)C(=O)CC[C@H]1CCC(=O)[C@@H]1CCCCCCC(=O)O` [Test Compound 7, 7-[(1R,2R)-2-(4,4-difluoro-7-methyl-3-oxooctyl)-5-oxocyclopentyl]heptanoicacid]: the “diarrhea / loose feces” value in data set [1] (setting [11]) is listed as “no diarrhea”. For the same molecule, the inhibition in vivo at 1 mg/kg in data set [2] (setting [12]) was 52%; in data set [2] (setting [13]), 63%; in data set [2] (setting [14]), 86%. Also, the “inhibiting ratio LDH” value in data set [2] (1000 μg/kg × 3) came to 62%.
Take `CCCCC[C@@](C)(O)/C=C/[C@H]1[C@H](O)CC(=O)[C@@H]1C/C=C\CCCC(=O)O` [15-methyl-PGE2]: the hepatocyte protecting activity result in the data set with hepatocyte was “have a hepatocyte protecting activity”.
With `CC(C)CCC(F)(F)C(=O)CC[C@H]1[C@H](O)CC(=O)[C@@H]1CCCCCCC(=O)O` [Test Compound 5, 7-[(1R,2R,3R)-2-(4,4-difluoro-7-methyl-3-oxooctyl)-3-hydroxy-5-oxocyclopentyl]heptanoic acid], in data set [1] (setting [7]), the “diarrhea / loose feces” value is given as “no diarrhea in any cases”. Further, the inhibition in vivo at 0.1 mg/kg came to 51% in data set [2] (setting [8]), 66% in data set [2] (setting [9]) and 72% in data set [2] (setting [10]). Besides, in data set [2] (100 μg/kg × 3), the “inhibiting ratio LDH” value is given as 59%.
Consider `CCC[C@@H](C)C(F)(F)C(=O)CC[C@H]1CCC(=O)[C@@H]1CCCCCCC(=O)O` [Test Compound 10, 7-[(1R,2R)-2-{4,4-difluoro-5(R)-methyl-3-oxooctyl}-5-oxocyclopentyl]heptanoic acid], for which the “diarrhea / loose feces” value in data set [1] (setting [7]) is on record as “non”. Further, the results for the inhibition in vivo at 0.1 mg/kg in data set [2] (setting [8]), in data set [2] (setting [9]) and in data set [2] (setting [10]) were 36%, 39% and 59%, respectively.
As for `CCC[C@H](C)C(F)(F)C(=O)CC[C@H]1[C@H](O)CC(=O)[C@@H]1CCCCCCC(=O)O` [Test Compound 8], the “diarrhea / loose feces” value in data set [1] (setting [11]) is given as “no diarrhea”. The inhibition in vivo at 1 mg/kg came to 59% in data set [2] (setting [12]), 56% in data set [2] (setting [13]) and 92% in data set [2] (setting [14]). Moreover, in data set [2] (1000 μg/kg × 3), the “inhibiting ratio LDH” value turned out to be 63%.
As to `CC(C)C[C@@H](C)C(F)(F)C(=O)CC[C@H]1[C@H](O)CC(=O)[C@@H]1CCCCCCC(=O)O` [Test Compound 6, 7-[(1R,2R,3R)-2-{4,4-difluoro-5(R),7-dimethyl-3-oxooctyl}-3-hydroxy-5-oxocyclopentyl]heptanoic acid], the “diarrhea / loose feces” value in data set [1] (setting [11]) is “no diarrhea”. Besides, the inhibition in vivo at 1 mg/kg in data set [2] (setting [12]) is 60%; in data set [2] (setting [13]), 71%; in data set [2] (setting [14]) it was 88%. In addition, in data set [2] (1000 μg/kg × 3), the “inhibiting ratio LDH” value is given as 63%.
Regarding `CC(C)CCC(F)(F)C(=O)CC[C@H]1[C@H](O)CC(=O)[C@@H]1C/C=C\CCCC(=O)O` [Test Compound 2, Z-7-[(1R,2R,3R)-2-(4,4-difluoro-7-methyl-3-oxooctyl)-3-hydroxy-5-oxocyclopentyl]hept-5-enoic acid], the “diarrhea / loose feces” value in data set [1] (setting [3]) is recorded as “no diarrhea was observed in every rat”. Moreover, the inhibition in vivo at 0.03 mg/kg is 29% in data set [2] (setting [4]), 36% in data set [2] (setting [5]) and 51% in data set [2] (setting [6]). Besides, in data set [2] (30 μg/kg × 3), the “inhibiting ratio LDH” value was determined as 32%.
As for `CC(C)CC(F)(F)C(=O)CC[C@H]1[C@H](O)CC(=O)[C@@H]1CCCCCCC(=O)O` [Test Compound 12, 7-[(1R,2R,3R)-2-(4,4-difluoro-6-methyl-3-oxoheptyl)-3-hydroxy-5-oxocyclopentyl]heptanoic acid], the “diarrhea / loose feces” value in data set [1] (setting [7]) was “non”. For the same molecule, the inhibition in vivo at 0.1 mg/kg in data set [2] (setting [8]) was determined as 38%; in data set [2] (setting [9]), 40%; in data set [2] (setting [10]) it was 69%.
In the case of `CCC(CC)CC(F)(F)C(=O)CC[C@H]1[C@H](O)CC(=O)[C@@H]1CCCCCCC(=O)O` [Test Compound 13, 7-[(1R,2R,3R)-2-(4,4-difluoro-6-ethyl-3-oxooctyl)-3-hydroxy-5-oxocyclopentyl]heptanoic acid], the “diarrhea / loose feces” value in data set [1] (setting [15]) is listed as “non”. Also, the results for the inhibition in vivo at 0.01 mg/kg in data set [2] (read-out: inhibiting ratio GOT), in data set [2] (read-out: inhibiting ratio GPT) and in data set [2] (setting [16]) were 47%, 42% and 75%, respectively.
For `CC[C@@H](C)CC(F)(F)C(=O)CC[C@H]1[C@H](O)CC(=O)[C@@H]1CCCCCCC(=O)O` [Test Compound 11, 7-[(1R,2R,3R)-2-{4,4-difluoro-6(R)-methyl-3-oxooctyl}-3-hydroxy-5-oxocyclopentyl]heptanoic acid], in that order: “non”, 45%, 34% and 56%.

Values taken from US5739161A, “Agent for treating hepto.biliary diseases” (priority 1994, dated 1998).
